Data as given in ChEMBL document CHEMBL5346873, “Strategic modification of low-activity natural antimicrobial peptides confers antibacterial potential in vitro and in vivo” (Eur J Med Chem, 2023).

Assays:
Acinetobacter baumannii = experiment: Bactericidal activity against Acinetobacter baumannii incubated for overnight; format: functional
Staphylococcus aureus = experiment: Bactericidal activity against Staphylococcus aureus incubated for overnight; format: functional
[1] = Hemolytic activity in human RBC at 100 ug/ml incubated for 1 hr; format: toxicity, cell-based, Erythrocyte; conditions: human red blood cells (erythrocytes), at 100 µg/mL, read-out: Activity

Q: Which results are given for H-FDWDSVLKGVEGFVRGYF-OH?
A: MBC (Acinetobacter baumannii): > 100 µg/mL; MBC (Staphylococcus aureus): > 100 µg/mL; hemolysis at 1 h, 100 ug/ml [1]: 15.2%

Q: What does the source list for H-FKDKSVLKIVDIFVDIYF-OH?
A: MBC (Acinetobacter baumannii): > 100 µg/mL; MBC (Staphylococcus aureus): > 100 µg/mL; hemolysis at 1 h, 100 ug/ml [1]: 2.7%

Q: What does the source list for H-FKDKSVLKIVKIFVDIYF-OH?
A: MBC (Acinetobacter baumannii): > 100 µg/mL; MBC (Staphylococcus aureus): > 100 µg/mL; hemolysis at 1 h, 100 ug/ml [1]: 16.3%

Q: With H-FKDKSVLKIVKIFVKIYF-OH as the substance, how does the MBC (Acinetobacter baumannii) read?
A: Its MBC is over 100 µg/mL.

Q: What about the MBC (Staphylococcus aureus) of the same substance?
A: Its MBC is over 100 µg/mL.

Q: What about the hemolysis at 1 h, 100 ug/ml [1] of the same substance?
A: The hemolysis at 1 h, 100 ug/ml was 2.2%.

Q: With H-FKWKSVLKGVDGFVDGYF-OH as the substance, how does the MBC (Acinetobacter baumannii) read?
A: Its MBC is over 100 µg/mL.

Q: And the MBC (Staphylococcus aureus)?
A: Its MBC is over 100 µg/mL.

Q: And the hemolysis at 1 h, 100 ug/ml [1]?
A: Its hemolysis at 1 h, 100 ug/ml is 101%.

Q: What does the source list for H-FKWKSVLKGVKGFVDGYF-OH?
A: MBC (Acinetobacter baumannii): > 100 µg/mL; MBC (Staphylococcus aureus): > 100 µg/mL; hemolysis at 1 h, 100 ug/ml [1]: 99.8%
